Patent US20100086602A1, “PHARMACEUTICAL COMPOSITION CONTAINING STATIN-ENCAPSULATED NANOPARTICLE” (priority 2006, published 2010)
“Also recorded” adds a separate entry of the source.

Key:
[1] = Serological assessment 14 days after hindlimb ischemia; assay type: in vivo, mice
Description: (§1) Male C57BL/6J wild-type mice were bred and maintained in the Laboratory of Animal Experiments at Kyushu University. After anesthesia with an intraperitoneal injection of ketamine hydrochloride and xyladine hydrochloride, animals underwent surgical ligation and resection of the left femoral artery to produce unilateral hindlimb ischemia. […] As a control, a group of PLGA-FITC-mice (FITC group) received intramuscular injections of FITC-loaded PLGA nanoparticles (0.16 mg/100 μl), a group of PEG/CS-PLGA-FITC-mice (PEG/CS-FITC group) received intramuscular injections of FITC-loaded PEG/CS PLGA nanoparticles (0.16 mg/100 μl), and another group of mice (NT group) received no treatment.
There were no difference between each group in the total cholesterol, triglyceride, myoglobin, CK, BUN and Cre values in serum.

[2] = test system: unilateral hindlimb ischemia; assay: Arteriogenesis by immunohistochemical staining with α-SMA; assay type: in vivo, mice; conditions: day 14 after hindlimb ischemia; 0.01 mg pitavastatin intramuscular
Description: (§2) A group of PLGA-Pit-mice (PLGA-Pit group) and a group of PEG/CS-PLGA-Pit-mice (PEG/CS-Pit group) received intramuscular injections of pitavastatin-loaded PLGA nanoparticles (0.18 mg/100 μl) and pitavastatin-loaded PEG/CS-PLGA nanoparticles (0.44 mg/100 μl, each containing 0.01 mg of pitavastatin), respectively. As control, a group of PLGA-mice (PLGA group) received intramuscular injections of PLGA nanoparticles (0.18 mg/100 μl) and another group of mice (NT group) received no treatment.
Arteriogenesis was determined by immunohistochemical staining with α-SMA.

[3] = test system: hindlimb ischemia; assay: Recovery rate of ischemic tissues, pitavastatin dose comparison (FIG. 15); assay type: in vivo, mice; conditions: intramuscular, one portion; only pitavastatin 0.4, 4 and 20 mg/kg or PLGA-pitavastatin; days 3, 7 and 14
Description: The recovery rate of ischemic tissues were determined for ischemic mice injected intramuscularly with only nanoparticles, only pitavastatin (0.4, 4 and 20 mg/kg) or PLGA-pitavastatin in one portion.

[4] = test system: hindlimb ischemia; assay: Partial pressure ratio of oxygen in arterial and venous blood during muscular exercise of ischemic hindlimb; assay type: in vivo, Japanese rabbit; conditions: 35 days after ischemia; exercise by electric stimulus for 30 minutes; 0, 15 and 30 minutes
Description: Japanese rabbits (2.7 to 3.2 kg) underwent surgical ligation and resection of the unilateral femoral artery to produce hindlimb ischemia. After 7 days, animals were randomized to four groups: PLGA-pitavastatin group, PLGA-FITC group, pitavastatin group and PBS group, and received therapeutic substances by intra-ischemic-muscular injection of 5 ml (concentration of pitavastatin-loaded nanoparticle 6 mg/ml, corresponding to 0.33 mg/ml of pitavastatin). After 28 days from intramuscular injection (35 days after ischemia), animals were performed angiography. Mice were inserted catheters (5 Fr) from right internal carotid artery and the catheters were placed in left internal iliac artery under fluoroscopic control. […] 5 mm of grids were prepared within the range surrounded by lower end of femur (upper end), lower end of quadriceps (lower end), arteria iliaca interna (trunks are not counted, inner end) and distal portion of severed blood vessel (outer end). Angiographic score was calculated by dividing the number of grids in which blood vessel is found by total number of grids.
The effect of nanostatin on insufficient blood from at ischemic hindlimb on muscular exercising is examined. […] The partial pressure ratio of oxygen in arterial and venous blood in each time point was determined. The concentration of hemoglobine was determined at 0 minute. […]

[5] = test system: unilateral hindlimb ischemia; assay: Capillary density by immunohistochemical staining with anti-mouse PECAM-1 (CD31) antibody; assay type: in vivo, mice; conditions: day 14 after hindlimb ischemia; 0.01 mg statin intramuscular
Description: as §2

[6] = test system: hindlimb ischemia; assay: Angiography 35 days after hindlimb ischemia (angiographic score); assay type: in vivo, Japanese rabbits; conditions: Mean±SE; 35 days after ischemia, 28 days after intramuscular injection of 5 ml (0.33 mg/ml pitavastatin)
Description: Japanese rabbits (2.7 to 3.2 kg) underwent surgical ligation and resection of the unilateral femoral artery to produce hindlimb ischemia. After 7 days, animals were randomized to four groups: PLGA-pitavastatin group, PLGA-FITC group, pitavastatin group and PBS group, and received therapeutic substances by intra-ischemic-muscular injection of 5 ml (concentration of pitavastatin-loaded nanoparticle 6 mg/ml, corresponding to 0.33 mg/ml of pitavastatin). After 28 days from intramuscular injection (35 days after ischemia), animals were performed angiography. Mice were inserted catheters (5 Fr) from right internal carotid artery and the catheters were placed in left internal iliac artery under fluoroscopic control. 0.25 mg of Millisrol were injected into artery through catheters, followed by injection of imaging agents at the rate of 1 ml/second for 5 seconds to perform angiography. An assessment for the number of blood vessel was carried out by using static images at 3 second after injection of imaging agents. 5 mm of grids were prepared within the range surrounded by lower end of femur (upper end), lower end of quadriceps (lower end), arteria iliaca interna (trunks are not counted, inner end) and distal portion of severed blood vessel (outer end). Angiographic score was calculated by dividing the number of grids in which blood vessel is found by total number of grids.

[7] = test system: unilateral hindlimb ischemia; assay: Laser Doppler perfusion imaging of limb blood flow after hindlimb ischemia; assay type: in vivo, mice; conditions: single intramuscular injection containing 0.01 mg statin (0.5 mg/kg), days 0, 3, 7 and 14, versus no-treatment
Description: as §2

[8] = test system: muscular tissues of ischemic hindlimb; set-up: species or system mice; conditions: mouse, in vivo
Description: as §1

In the case of `CC(C)c1c(C(=O)Nc2ccccc2)c(-c2ccccc2)c(-c2ccc(F)cc2)n1CC[C@@H](O)C[C@@H](O)CC(=O)O` [atorvastatin], the signs of rhabdomyolysis ([1]; intramuscularly injected mice) is reported as “Neither group of atorvastatin nor atorvastatin-loaded nanoparticle intramuscularly injected mice showed the signs of rhabdomyolysis”, the BUN ([1]; serum, n = 4) is reported as 30.3 ± 2.8 mg/dL and the CK ([1]; serum, n = 4) is reported as 159.0 ± 37.7 IU/L. The Cre ([1]; serum, n = 4) was 0.083 ± 0.009 mg/dL, the myoglobin ([1]; serum, n = 4) was less than 10 ng/mL and the total cholesterol ([1]; serum, n = 4) was 66.0 ± 3.2 mg/dL. The triglyceride ([1]; serum, n = 4) was 13.5 ± 1.8 mg/dL.

In the case of `O=C(O)C[C@H](O)C[C@H](O)/C=C/c1c(C2CC2)nc2ccccc2c1-c1ccc(F)cc1` [pitavastatin], the “α-SMA positive vascular structure (arteriogenesis)” value [2] is reported as “comparable to no-treatment group”, the “recovery of ischemic tissues / angiogenesis (ratio of ischemic region to normal region)” value [3] is reported as “does not result in angiogenesis; also recorded: No angiogenesis” and the “partial pressure ratio of oxygen in arterial and venous blood during muscular exercise” value [4] is reported as “increases of partial pressure ratio of oxygen in arterial and venous blood were shown”. The “capillary density, endothelial cells (CD31 positive cells)” value [5] was “comparable to no-treatment group”, the Angiographic score [6] was 0.51±0.04 and the “limb blood flow at ischemic side (LDPI index, ratio of ischemic to normal limb)” value [7] was “comparable to no-treatment group”. The “limb blood flow at ischemic side (LDPI index, ratio of ischemic to normal limb)” value ([7]; listed as Pit) was “no improvement of blood flow”.

With FITC the “nanoparticles remaining in muscular tissues (fluorescence)” value [8] was “nanoparticles remain in muscular tissues on day 7”.
